This note sets out measurements from ChEMBL document CHEMBL1149135, “Aza-peptide Michael acceptors: a new class of inhibitors specific for caspases and other clan CD cysteine proteases” (J Med Chem, 2004).

Chain of Caspase-8 (Homo sapiens) (Q14790 217-374 limits assumed): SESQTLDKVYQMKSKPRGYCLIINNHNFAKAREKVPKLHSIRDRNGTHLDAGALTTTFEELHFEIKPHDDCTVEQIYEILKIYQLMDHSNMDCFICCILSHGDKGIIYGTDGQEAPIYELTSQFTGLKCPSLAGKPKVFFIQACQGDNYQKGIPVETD
Chain of Caspase-8 (Homo sapiens) (Q14790 385-479 limits assumed): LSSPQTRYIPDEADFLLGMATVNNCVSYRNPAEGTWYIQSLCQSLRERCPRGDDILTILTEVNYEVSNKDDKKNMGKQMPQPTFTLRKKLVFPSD

The first experiment concerns the target T1, Caspase-3 (Homo sapiens) (UniProt P42574).
T1 sequence (whole entry): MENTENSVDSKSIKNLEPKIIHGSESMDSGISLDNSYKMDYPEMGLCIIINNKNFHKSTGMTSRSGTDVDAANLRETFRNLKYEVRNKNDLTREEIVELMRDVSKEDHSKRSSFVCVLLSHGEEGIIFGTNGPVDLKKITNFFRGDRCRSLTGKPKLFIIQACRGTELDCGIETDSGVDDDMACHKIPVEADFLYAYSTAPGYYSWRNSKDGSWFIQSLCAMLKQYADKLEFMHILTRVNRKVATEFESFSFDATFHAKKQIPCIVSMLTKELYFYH
Nature of the experiment: Compound was evaluated for potent inhibition of caspase-3.
In the case of `CC(C)C[C@H](NC(=O)OCc1ccccc1)C(=O)N[C@@H](CCC(=O)O)C(=O)N[C@H](C(=O)NN(CC(=O)O)C(=O)/C=C/C(=O)OCc1ccccc1)[C@@H](C)O`, the k2 turned out to be 4600 M⁻¹ s⁻¹.
On to `CC(C)[C@H](NC(=O)[C@H](CCC(=O)O)NC(=O)[C@H](CC(=O)O)NC(=O)OCc1ccccc1)C(=O)NN(CC(=O)O)C(=O)/C=C/C(=O)OCc1ccccc1`, for which the k2 came out at 1.7e+06 M⁻¹ s⁻¹.
Take `CC(C)[C@H](NC(=O)[C@H](CCC(=O)O)NC(=O)[C@H](CC(=O)O)NC(=O)OCc1ccccc1)C(=O)NN(CC(=O)O)C(=O)/C=C/C(=O)NCc1ccccc1`: the k2 was 1.75e+06 M⁻¹ s⁻¹.
For the molecule `CCOC(=O)/C=C/C(=O)N(CC(=O)O)NC(=O)[C@@H](NC(=O)[C@H](CCC(=O)O)NC(=O)[C@H](CC(C)C)NC(=O)OCc1ccccc1)[C@@H](C)O`, the k2 came out at 5560 M⁻¹ s⁻¹.
The molecule `CCOC(=O)/C=C/C(=O)N(CC(=O)O)NC(=O)[C@@H](NC(=O)[C@H](CCC(=O)O)NC(=O)[C@H](CC(=O)O)NC(=O)OCc1ccccc1)C(C)C` showed a k2 of 2.13e+06 M⁻¹ s⁻¹.
Molecule `CC(C)C[C@H](NC(=O)OCc1ccccc1)C(=O)N[C@@H](CCC(=O)O)C(=O)N[C@H](C(=O)NN(CC(=O)O)C(=O)/C=C/C(=O)N(C)Cc1ccccc1)[C@@H](C)O` had a k2 of 6000 M⁻¹ s⁻¹.
Still for that read-out and setting: the figure for `CC(C)[C@H](NC(=O)[C@H](CCC(=O)O)NC(=O)[C@H](CC(=O)O)NC(=O)OCc1ccccc1)C(=O)NN(CC(=O)O)C(=O)/C=C/C(=O)N(C)Cc1ccccc1` is 2.64e+06 M⁻¹ s⁻¹.

For the next experiment, the target named is T2, Caspase-6 (Homo sapiens) (UniProt P55212).
T2 sequence (whole entry): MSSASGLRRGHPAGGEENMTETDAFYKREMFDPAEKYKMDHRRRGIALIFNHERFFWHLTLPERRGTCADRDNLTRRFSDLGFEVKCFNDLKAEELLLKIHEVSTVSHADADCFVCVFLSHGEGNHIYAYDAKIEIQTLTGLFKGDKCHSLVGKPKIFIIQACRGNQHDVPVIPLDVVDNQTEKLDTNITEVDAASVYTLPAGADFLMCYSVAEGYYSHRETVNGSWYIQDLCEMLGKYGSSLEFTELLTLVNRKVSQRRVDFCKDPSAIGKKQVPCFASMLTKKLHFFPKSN
Nature of the experiment: Compound was evaluated for potent inhibition of caspase-6.
`CC(C)C[C@H](NC(=O)OCc1ccccc1)C(=O)N[C@@H](CCC(=O)O)C(=O)N[C@H](C(=O)NN(CC(=O)O)C(=O)/C=C/C(=O)OCc1ccccc1)[C@@H](C)O` showed a k2 of 47600 M⁻¹ s⁻¹.
Same read-out and setting: with `CC(C)[C@H](NC(=O)[C@H](CCC(=O)O)NC(=O)[C@H](CC(=O)O)NC(=O)OCc1ccccc1)C(=O)NN(CC(=O)O)C(=O)/C=C/C(=O)OCc1ccccc1` the figure was 8470 M⁻¹ s⁻¹.
Same read-out and setting: the figure for `CC(C)[C@H](NC(=O)[C@H](CCC(=O)O)NC(=O)[C@H](CC(=O)O)NC(=O)OCc1ccccc1)C(=O)NN(CC(=O)O)C(=O)/C=C/C(=O)NCc1ccccc1` is 3210 M⁻¹ s⁻¹.
Take `CCOC(=O)/C=C/C(=O)N(CC(=O)O)NC(=O)[C@@H](NC(=O)[C@H](CCC(=O)O)NC(=O)[C@H](CC(C)C)NC(=O)OCc1ccccc1)[C@@H](C)O`: the k2 was 18700 M⁻¹ s⁻¹.
On the same count and under the same terms, with `CCOC(=O)/C=C/C(=O)N(CC(=O)O)NC(=O)[C@@H](NC(=O)[C@H](CCC(=O)O)NC(=O)[C@H](CC(=O)O)NC(=O)OCc1ccccc1)C(C)C` the figure was 35600 M⁻¹ s⁻¹.
Same read-out and setting: with `CC(C)C[C@H](NC(=O)OCc1ccccc1)C(=O)N[C@@H](CCC(=O)O)C(=O)N[C@H](C(=O)NN(CC(=O)O)C(=O)/C=C/C(=O)N(C)Cc1ccccc1)[C@@H](C)O` the figure was 10800 M⁻¹ s⁻¹; with `CC(C)[C@H](NC(=O)[C@H](CCC(=O)O)NC(=O)[C@H](CC(=O)O)NC(=O)OCc1ccccc1)C(=O)NN(CC(=O)O)C(=O)/C=C/C(=O)N(C)Cc1ccccc1`, 9500 M⁻¹ s⁻¹.

Another experiment addresses Caspase-8 (Homo sapiens) (UniProt Q14790). Nature of the experiment: Compound was evaluated for potent inhibition of caspase-8.
Molecule `CC(C)C[C@H](NC(=O)OCc1ccccc1)C(=O)N[C@@H](CCC(=O)O)C(=O)N[C@H](C(=O)NN(CC(=O)O)C(=O)/C=C/C(=O)OCc1ccccc1)[C@@H](C)O` had a k2 of 98400 M⁻¹ s⁻¹.
Same read-out and setting: with `CC(C)[C@H](NC(=O)[C@H](CCC(=O)O)NC(=O)[C@H](CC(=O)O)NC(=O)OCc1ccccc1)C(=O)NN(CC(=O)O)C(=O)/C=C/C(=O)OCc1ccccc1` the figure was 121000 M⁻¹ s⁻¹.
The same measure, in the same setting: the figure for `CC(C)[C@H](NC(=O)[C@H](CCC(=O)O)NC(=O)[C@H](CC(=O)O)NC(=O)OCc1ccccc1)C(=O)NN(CC(=O)O)C(=O)/C=C/C(=O)NCc1ccccc1` is 78200 M⁻¹ s⁻¹; for `CCOC(=O)/C=C/C(=O)N(CC(=O)O)NC(=O)[C@@H](NC(=O)[C@H](CCC(=O)O)NC(=O)[C@H](CC(C)C)NC(=O)OCc1ccccc1)[C@@H](C)O` it is 237000 M⁻¹ s⁻¹.
Turning to `CCOC(=O)/C=C/C(=O)N(CC(=O)O)NC(=O)[C@@H](NC(=O)[C@H](CCC(=O)O)NC(=O)[C@H](CC(=O)O)NC(=O)OCc1ccccc1)C(C)C`, the k2 worked out at 273000 M⁻¹ s⁻¹.
For `CC(C)C[C@H](NC(=O)OCc1ccccc1)C(=O)N[C@@H](CCC(=O)O)C(=O)N[C@H](C(=O)NN(CC(=O)O)C(=O)/C=C/C(=O)N(C)Cc1ccccc1)[C@@H](C)O`, the k2 was found to be 169000 M⁻¹ s⁻¹.
Turning to `CC(C)[C@H](NC(=O)[C@H](CCC(=O)O)NC(=O)[C@H](CC(=O)O)NC(=O)OCc1ccccc1)C(=O)NN(CC(=O)O)C(=O)/C=C/C(=O)N(C)Cc1ccccc1`, the k2 amounted to 90300 M⁻¹ s⁻¹.

The test system of another experiment is Clostripain (Clostridium histolyticum). Nature of the experiment: Compound was evaluated for irreversible inhibition of clostripain.
The molecule `CCOC(=O)/C=C/C(=O)N(CCCN)NC(=O)[C@H](CC(C)C)NC(=O)OCCc1ccccc1` yielded a k2 of 788 M⁻¹ s⁻¹.
`CCOC(=O)/C=C/C(=O)N(CCCCN)NC(=O)[C@H](CC(C)C)NC(=O)OCCc1ccccc1`: the k2 was 40800 M⁻¹ s⁻¹.

The next experiment concerns Lys-gingipain (Porphyromonas gingivalis). Nature of the experiment: Compound was evaluated for irreversible inhibition of Lys-gingipain.
For the molecule `CCOC(=O)/C=C/C(=O)N(CCCN)NC(=O)[C@H](CC(C)C)NC(=O)OCCc1ccccc1`, the k2 was 927000 M⁻¹ s⁻¹.
On the same count and under the same terms, with `CCOC(=O)/C=C/C(=O)N(CCCCN)NC(=O)[C@H](CC(C)C)NC(=O)OCCc1ccccc1` the figure was 3.28e+06 M⁻¹ s⁻¹.
